The subject of one data set is Xenopus laevis embryos. The experiment in a line: frog embryo morphogenesis assay (scoring of developmental defects). The data set is classed as in vivo. The following applies: for EC50: Xenopus laevis, 72 h. An excerpt: In order to identify compounds that specifically perturb morphogenesis in the frog embryo, a suitable method for scoring embryos by characteristic defects was developed. A useful starting point was the “dorso-anterior index” (DAI). The DAI originally was constructed by adding new morphological characteristics to the older “index of axis deficiency” (S. R. Scharf et al., Dev. Biol., 99, 75-87 (1983)). The DAI is a scale of dorsoanterior development wherein embryos are assigned a score based on degree of dorsoanterior phenotype (K. R. Kao et al., Dev. Biol., 127, 64-77 (1988)). The scale encompasses a score of 0 (for the most axis-deficient or ventralized embryos) to 10 (for embryos with the most enhanced dorsoanterior structures), with a score of 5 signifying a normal embryo.
Because the DAI focuses only on dorsoanterior phenotypes, other categories were added to describe possible defects more comprehensively, with an emphasis on characteristics that are easily and unambiguously recognized in intact embryos, and that are diagnostic of possible effects on morphogenesis during gastrulation and neurulation. The most useful and readily scored categories that covered the most frequent deficiencies were: reduced anterior structures and microcephaly, delayed appearance or absence of eye pigmentation, overall shortness along the anteroposterior axis, bent axis, bent tail only, reduced posterior structures/tail, malformed or reduced fins, delayed or failed neural tube closure (neural fold fusion), abnormal pigmentation pattern, ventral swelling (edema), and delayed or abnormal visceral organogenesis and yolk resorption. In addition, blastopore closure, an earlier process that marks the completion of gastrulation, was observed.
In these tests, test compounds were added individually to wells each containing 4-8 embryos in 12-well plates. Embryos at stage 8.5-9, according to the classification of Nieuwkoop and Faber (P. I. Nieuwkoop et al., Normal Table of Xenopus laevis (Daudin). Amsterdam: North-Holland Publ.) (1967)), were used because these are late blastula stages before gastrulation begins at stage 10, which allowed focusing primarily on compounds that affect morphogenetic events in gastrulation and neurulation. These embryos, therefore, have undergone a midblastula transition at stage 8 (cleavage division 12) when zygotic transcription begins (J. Newport et al., Cell, 30, 675-686 (1982); J. Newport et al., Cell, 30, 687-696 (1982)) but have not yet started the morphogenetic movements of gastrulation.
Standard procedures were used in the care of animals, gamete preparation, fertilization of oocytes, and culture of embryos (B. K. Kay et al., Methods in Cell Biology, Volumn 36 (San Diego: Academic Press, Inc.) (1991)). In order to stimulate ovulation, female frogs were injected with 500 units of human chorionic gonadotropin (HCG). Eggs were squeezed from female frogs 12 hours later. Testes were removed from euthanized male frogs that had been primed with 50 units of HCG 4-6 hours earlier. The testes were stored at 4° C. in single strength Marc's Modified Ringer's solution with 50 μg/ml gentamycin and used for no more than 10 days. Small pieces of testes were macerated and spread over eggs for in vitro fertilization in Petri dishes. Fertilized eggs were placed in one-tenth strength Modified Barth's Saline (MBS) with 50 μg/ml gentamycin at constant temperature (19° C.) in a temperature-controlled incubator and development allowed to proceed under these conditions. Embryos were dejellied by briefly swirling them in a solution of 2% (w/v) L-cysteine, pH 8.0. The embryos then were rinsed extensively with one-tenth strength MBS to wash out the cysteine. Experiments were started within an hour of dejellying the embryos.
Experiments were carried out in 12-well flat-bottom polystyrene plates with 4-8 embryos per well in 1.0 ml of one-tenth strength MBS with 50 μg/ml gentamycin at 19° C. […]

The next data set deals with Keller sandwich explants. The data set can be described thus: convergent extension in Keller sandwich explants. The arrangement: species or system frog. The source says:
It is hypothesized, but not relied upon herein, that the effects of compound 1 are mediated by an activity or activities after stage 9 during gastrulation and neurulation, and its effects on blastopore closure and anteroposterior elongation are consistent with inhibition of convergent extension. […] Therefore, compound 1 affects cell motility, cell polarity, and/or cell adhesion in the embryo.

Like-named read-outs stand apart in the source and are kept apart here.

`C/C=C/C(=O)N1C(=O)OC[C@@H]1Cc1ccccc1` [Compound 1, (4S)-3-((E)-2-butenoyl)-4-benzyl-2-oxazolidinone]: the “reduction in the length of the tail” value in the data set on Xenopus laevis embryos (15 μM added at 2-cell stage) is listed as “evident”. Moreover, the “effects on anteroposterior elongation, head and eye development, visceral organogenesis and yolk resorption” value in the data set on Xenopus laevis embryos (15 μM added at 2-cell stage, 48 hours) is given as “significant effects”. In addition, the “anteroposterior length, head development, eye pigmentation, visceral organogenesis and yolk resorption versus control embryos” value in the data set with Xenopus laevis embryos (15 μM added at stage 8.5-9, 48, 72 or 96 hours after treatment, Student's t-test) is “significantly different”. The “exposure before washing out with no significant effect on later development” value in the data set on Xenopus laevis embryos (15 μM, stage 8.5-9 embryos) was “up to 9 hours”. Moreover, in the data set with Xenopus laevis embryos (15 μM, stage 8.5-9 embryos), the “exposure resulting in significant defects in postneurula analyses” value was not below 12 h. Besides, the EC50 with Xenopus laevis embryos (read-out: EC50 with respect to the defective phenotype at 72 hr following treatment) and in the data set on Xenopus laevis embryos (read-out: log EC50+standard error of log EC50 (converted)) was 13.9 µM each time. The “concentration lethal to the embryos” value in the data set with Xenopus laevis embryos (frog embryos) is 2 to 3 times the EC50. In addition, in the data set on Xenopus laevis embryos (treatment at stage 8.5-9 or 2-cell stage), the “blastopore closure in gastrulating embryos” value is “delayed”. Moreover, the convergent extension result in the data set on Keller sandwich explants was “inhibits convergent extension”.

(Values after patent publication US7390826B2, “Inhibitors of animal cell motility and growth” (The Board of Trustees of The University of Illinois, priority 2002, dated 2008).)
